Values joined by “and” are separate entries in the source; they are usually repeats but may differ in a detail not shown here. Equal values may be shown once. Read-outs that look alike come from different tables or passages of the source. Where a SMILES comes first, the peptide text is derived from it. Where no end group is shown, it is not given here. [ ]: non-standard residue; d: D form. The star is where a group is joined. Hexanoyl = CCCCCC(=O)*; Aib = CC(C)(N)C(=O)O

Experiment [1] concerns the target T1, human VPAC2 (Homo sapiens, UniProt P41587).
T1 construct: expressed in transfected cells
T1 sequence (P41587 24-438): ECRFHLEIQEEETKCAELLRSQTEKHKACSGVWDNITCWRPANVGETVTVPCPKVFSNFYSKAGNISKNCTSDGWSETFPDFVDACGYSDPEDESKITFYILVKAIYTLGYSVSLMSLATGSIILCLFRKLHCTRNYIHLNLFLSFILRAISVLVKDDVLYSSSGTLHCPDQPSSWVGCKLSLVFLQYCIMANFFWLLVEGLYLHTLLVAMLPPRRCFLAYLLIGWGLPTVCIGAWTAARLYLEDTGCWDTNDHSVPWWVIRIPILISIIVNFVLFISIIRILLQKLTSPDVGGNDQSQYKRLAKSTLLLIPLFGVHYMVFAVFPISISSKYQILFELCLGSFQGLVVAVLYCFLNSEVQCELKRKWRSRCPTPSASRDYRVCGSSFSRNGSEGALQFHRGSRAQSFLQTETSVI
The experiment can be described thus: Alpha screen cAMP in vitro potency, human VPAC2 receptor. Type of experiment: cell-based. The method, boiled down:
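Under reduced light, acceptor beads accompany the stimuli during a 60-minute incubation of cells in stimulation buffer (50,000 per well point). Donor beads go in with lysis buffer for a further 60–120 minutes, and the resulting AlphaScreen signal indicates cAMP levels.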

For experiment [2], the target named is T1, human VPAC2. Kind of experiment: Filter binding assay, membranes of stable VPAC2 cell line, 125I-labeled VIP tracer (Table 2). The method in brief:
(§1)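 Scintillation counting of filter-retained radioligand gave the read-out. Compounds competed with the labelled tracer (about 40000 cpm) for 2.5 μg membranes during 1 hour of shaking in HEPES pH 7.4 buffer containing 0.5% BSA.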

For a further experiment, the target named is T2, human PAC1 (Homo sapiens, UniProt P41586).
T2 sequence (P41586 21-468): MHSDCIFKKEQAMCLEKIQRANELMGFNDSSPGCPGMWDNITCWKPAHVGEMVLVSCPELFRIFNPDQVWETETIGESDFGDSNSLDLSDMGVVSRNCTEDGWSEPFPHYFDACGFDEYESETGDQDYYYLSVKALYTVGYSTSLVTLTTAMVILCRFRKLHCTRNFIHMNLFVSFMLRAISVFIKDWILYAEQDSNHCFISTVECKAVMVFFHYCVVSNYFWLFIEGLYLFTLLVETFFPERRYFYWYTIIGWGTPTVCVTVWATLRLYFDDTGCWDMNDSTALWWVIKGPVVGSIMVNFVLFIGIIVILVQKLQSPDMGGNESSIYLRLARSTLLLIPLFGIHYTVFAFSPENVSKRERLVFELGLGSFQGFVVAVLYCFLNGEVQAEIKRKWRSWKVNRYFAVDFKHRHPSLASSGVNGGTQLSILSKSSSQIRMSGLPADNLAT
The experiment can be described thus: Filter binding assay, membranes of cells transiently transfected with human PAC1, 125I-labeled PACAP-27 tracer (Table 2). Details: expressed in transfected cells. The method in brief:
as §1

The next experiment has as its system Normal Wistar rats. Kind of experiment: Intravenous glucose tolerance test (IVGTT). The format is in vivo, rat. The settings on record: for % increase AUC: Dose = 0.5 μg/kg / % increase AUC: Dose = 10 μg/kg: IVGTT, insulin. How it is done:
Intravenous glucose tolerance test (IVGTT): Normal Wistar rats are fasted overnight and are anesthetized prior to the experiment. A blood sampling catheter is inserted into the rats. The compound is given in the jugular vein. Blood samples are taken from the carotid artery. A blood sample is drawn immediately prior to the injection of glucose along with the compound. After the initial blood sample, glucose mixed with compound is injected intravenously (i.v.). A glucose challenge of 0.5 g/kg body weight is given, injecting a total of 1.5 mL vehicle with glucose and agonist per kg body weight. The peptide concentration vary to produce the desired dose in μg/kg. Blood samples are drawn at 2, 4, 6 and 10 minutes after giving glucose. The control group of animals receives the same vehicle along with glucose, but with no compound added. In some instances, a 30 minute post-glucose blood sample is drawn. Aprotinin is added to the blood sample (250 kIU/ml blood). The serum is then analyzed for glucose and insulin using standard methodologies.
The assay uses a formulated and calibrated peptide stock in PBS. Normally, this stock is a prediluted 100 μM stock. However, a more concentrated stock with approximately 1 mg agonist per mL is used. The specific concentration is always known. Variability in the maximal response is mostly due to variability in the vehicle dose.

The target in another experiment is T3, human VPAC1 (Homo sapiens, UniProt P32241).
T3 sequence (P32241 31-457): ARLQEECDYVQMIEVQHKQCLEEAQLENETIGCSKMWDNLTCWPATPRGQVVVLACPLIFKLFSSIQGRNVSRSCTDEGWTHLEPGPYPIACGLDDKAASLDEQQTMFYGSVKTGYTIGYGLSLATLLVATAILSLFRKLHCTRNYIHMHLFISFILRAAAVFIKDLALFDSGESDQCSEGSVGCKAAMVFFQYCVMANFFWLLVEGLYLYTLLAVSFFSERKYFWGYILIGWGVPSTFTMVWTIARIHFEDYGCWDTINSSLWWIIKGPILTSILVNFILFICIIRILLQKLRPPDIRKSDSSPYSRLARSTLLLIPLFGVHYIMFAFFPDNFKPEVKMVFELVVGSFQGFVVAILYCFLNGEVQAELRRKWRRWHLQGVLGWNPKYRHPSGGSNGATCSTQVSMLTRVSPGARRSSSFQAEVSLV
The experiment can be described thus: Filter binding assay, membranes of cells transiently transfected with human VPAC1, 125I-labeled VIP tracer (Table 2). Details: expressed in transfected cells. The method, boiled down: as §1

[3] abbreviates: cAMP generation, single result from two analyses performed in a single run, read-out: Human VPAC2 Receptor: Alpha Screen EC50.
Setting [4] is: read-out: Human VPAC2 Receptor Binding.
[5] abbreviates: read-out: Human PAC1 Receptor Binding.
Where [6] appears, read: read-out: Human VPAC1 Receptor Binding.

In general, EC50 refers to the concentration needed to bring the measured effect to its halfway point. As for “Hexanoyl-HSDAVFTDNYTRLRKQVAAKKYLQSIKNKRYGGPSSGAPPPS [Agonist P31]”, the EC50 on human VPAC2 [1] (setting [3]) stood at 0.13 nM. Besides, the IC50 at human VPAC2 [2] (setting [4]) was determined as 0.23 nM; on human PAC1 (setting [5]), 406 nM; at human VPAC1 (setting [6]), 145 nM. In addition, the “% increase AUC: Dose = 0.5 μg/kg” value in the experiment on Normal Wistar rats was determined as 250%.

In turn, “H-MHSDAVFTDNYTRLRKQVAAKKYLQSIKNKRYGGPSSGAPPPS [Agonist P104]” gave an EC50 at human VPAC2 [1] of 0.27 nM. Also, the IC50 on human VPAC2 [2] came to 0.68 nM; on human PAC1, 117 nM; at human VPAC1, 301 nM. Besides, in the experiment on Normal Wistar rats, the “% increase AUC: Dose = 0.5 μg/kg” value was 142% and 205%. In the experiment with Normal Wistar rats, the “% increase AUC: Dose = 10 μg/kg” value was 198% and 370%.

Turning to “Hexanoyl-HSDAVFTDNYTRLR[Aib]QVAAK[Aib]YLQSIKNKRYGGPSSGAPPPS [Agonist P264]”, the EC50 at human VPAC2 [1] (setting [3]) was determined as 0.1 nM. Besides, the values for the IC50 at human VPAC2 [2] (setting [4]), on human PAC1 (setting [5]) and at human VPAC1 (setting [6]) were 0.88 nM, more than 25000 nM and more than 3000 nM, respectively. The “% increase AUC: Dose = 0.5 μg/kg” value in the experiment with Normal Wistar rats is recorded as 10%. The “% increase AUC: Dose = 10 μg/kg” value in the experiment with Normal Wistar rats came to 95%.

Take “Hexanoyl-HSDAVFTDNYTRLR[Aib]QVAA[Aib]KYLQSIKNKRYGGPSSGAPPPS [Agonist P261]”: the EC50 on human VPAC2 [1] (setting [3]) worked out at 0.09 nM. The IC50 is 0.2 nM at human VPAC2 [2] (setting [4]), more than 25000 nM at human PAC1 (setting [5]) and 1000 nM on human VPAC1 (setting [6]). Also, the “% increase AUC: Dose = 0.5 μg/kg” value in the experiment with Normal Wistar rats is reported as 136%. Also, the “% increase AUC: Dose = 10 μg/kg” value with Normal Wistar rats was 320%.

With “Hexanoyl-HSDAVFTDNYTRLLAKLALQKYLQSIKNKRYGGPSSGAPPPS [Agonist P119]”, at human VPAC2 [1] (setting [3]), the EC50 is 0.42 nM. The IC50 on human VPAC2 [2] (setting [4]) was found to be 0.48 nM. Besides, the IC50 on human PAC1 (setting [5]) is more than 25000 nM. Moreover, in the experiment with Normal Wistar rats, the “IVGTT ED50” value came out at 0.3 µg/kg, the “% increase AUC: Dose = 0.5 μg/kg” value turned out to be 118% and the “% increase AUC: Dose = 10 μg/kg” value was found to be 240%. Moreover, on human VPAC1 (setting [6]), the IC50 is more than 3000 nM.

In the case of `CCCCCC(=O)N[C@@H](Cc1c[nH]cn1)C(=O)N[C@@H](CO)C(=O)N[C@@H](CC(=O)O)C(=O)N[C@@H](C)C(=O)N[C@H](C(=O)N[C@@H](Cc1ccccc1)C(=O)N[C@H](C(=O)N[C@@H](CC(=O)O)C(=O)N[C@@H](CC(N)=O)C(=O)N[C@@H](Cc1ccc(O)cc1)C(=O)N[C@H](C(=O)N[C@@H](CCCNC(=N)N)C(=O)N[C@@H](CC(C)C)C(=O)N[C@@H](CCCNC(=N)N)C(=O)NC(C)(C)C(=O)N[C@@H](CCC(N)=O)C(=O)N[C@@H](CC(C)C)C(=O)N[C@@H](C)C(=O)N[C@@H](C)C(=O)NC(C)(C)C(=O)N[C@@H](CCCCN)C(=O)N[C@@H](Cc1ccc(O)cc1)C(=O)N[C@@H](CC(C)C)C(=O)N[C@@H](CCC(N)=O)C(=O)N[C@@H](CO)C(=O)N[C@H](C(=O)N[C@@H](CCCCN)C(=O)N[C@@H](CC(N)=O)C(=O)N[C@@H](CCCCN)C(=O)NCC(=O)NCC(=O)N1CCC[C@H]1C(=O)N[C@@H](CO)C(=O)N[C@@H](CO)C(=O)NCC(=O)N[C@@H](C)C(=O)N1CCC[C@H]1C(=O)N1CCC[C@H]1C(=O)N1CCC[C@H]1C(=O)N[C@@H](CO)C(=O)O)[C@@H](C)CC)[C@@H](C)O)[C@@H](C)O)C(C)C` [Agonist P292] (Hexanoyl-HSDAVFTDNYTRLR[Aib]QLAA[Aib]KYLQSIKNKGGPSSGAPPPS-OH; C-terminus assumed), the EC50 on human VPAC2 [1] (setting [3]) was 0.23 nM. The IC50 was 0.3 nM on human VPAC2 [2] (setting [4]), more than 25000 nM on human PAC1 (setting [5]) and more than 3000 nM on human VPAC1 (setting [6]). The “% increase AUC: Dose = 0.5 μg/kg” value with Normal Wistar rats is recorded as 292%. Further, the “% increase AUC: Dose = 10 μg/kg” value with Normal Wistar rats stood at 370%.

Values taken from US20080026996A1, “Selective Vpac2 Receptor Reptide Agonists” (ELI LILLY AND COMPANY, priority 2004, published 2008).
